We go through 2 sequences from US12173089B2, “Inhibition of pulmonary fibrosis with nutlin-3A and peptides” (BOARD OF REGENTS, THE UNIVERSITY OF TEXAS SYSTEM, priority 2013, dated 2024).

The subject of experiment [1] is lung epithelial cells (LECs). As to conditions: in vitro and in vivo; cited from earlier work.
The conditions of experiment [2]: after BLM; cited from earlier work.
The subject of a further experiment is BLM-treated mice. As to the kind of experiment: Established lung fibrosis in BLM-treated mice (CT scanning, lung function, trichrome staining, hydroxyproline, desmosine). The class given is in vivo. To be noted: IP or IV administration beginning 14 d after BLM, WT mice; results reported herein and elsewhere. How it is done: FIGS. 10A-10D. Nutlin-3a (NTL) inhibits lung fibrosis in BLM-treated mice. Mice were exposed to BLM for 14 d to induce lung fibrosis. Saline treated mice were used as fibrosis controls. After 14 d, mice exposed to BLM were injected IV with either vehicle or nutlin-3 a (10 mg/kg body weight) (Zhang F et al. Drug Metab Dispos 39: 15-21, 2011) to determine whether nutlin-3 a inhibited established lung fibrosis. On day 21 after BLM injury, mice underwent CT scanning to assess the extent of fibrosis (FIG. 10A). One representative example is shown (n=9). (FIG. 10B) Lung compliance and resistance were measured in the same mice using the Flexivent system to assess improvement in lung function after nutlin-3 a treatment (n=9). (FIG. 10C) Lung sections were subjected to trichrome staining to assess lung architecture and collagen deposition as an indication of lung fibrosis. (FIG. 10D) Whole lung homogenates were analyzed for total collagen (hydroxyproline) and desmosine content as an independent assessment of changes in ECM.
FIGS. 11A-11D. CSP-4 inhibits established lung fibrosis and improves lung function. Mice were exposed to BLM to induce pulmonary fibrosis. After 14 d, the mice were injected IV with either vehicle or 1.5 mg/kg body weight of CSP-4 or control peptide (“CP”) of scrambled sequence. On d 21 after BLM injury, mice underwent CT scanning examine CSP-4 inhibition of established lung fibrosis (FIG. 11A). One representative example is shown (n=9). (FIG. 11B): Lung volumes were measured in the same mice (n=9) using quantitative CT renditions. (FIG. 11C): Lung sections were subjected to trichrome and H&E staining (not shown) to assess collagen deposition as an indicator of lung fibrosis. (FIG. 11D) Analysis of whole lung homogenates for total hydroxyproline content.
Mice exposed to BLM (or saline in controls) for 14 d to induce lung fibrosis were injected IV with nutlin-3a (10 mg/kg body weight) (Zhang et al, supra) or a vehicle control to determine and the effect on established lung fibrosis was examined. Fibrosis was evaluated by CT scanning and lung function (compliance and resistance) were measured using the Flexivent system. Lung sections were subjected to trichrome staining and H & E staining (the latter not shown) to assess lung architecture and collagen deposition as an indication of fibrosis. Finally, whole lung homogenates were analyzed for total collagen (hydroxyproline) and desmosine content (Bhandary Y P et al, Am J Physiol: Lung Cell Mol Physiol 302:L463-73, 2012; Bhandary Y P et al, Am J Pathol, 183: 131-43 2013) as an independent assessment of the ECM. […] Oral administration of Nutlin-3a 14 days after BLM injury likewise inhibited pulmonary fibrosis in mice.
Mice were exposed to BLM to induce pulmonary fibrosis. After 14 d, the mice were injected IV with either vehicle or 1.5 mg/kg body weight of CSP-4 (SEQ ID NO: 1) or control peptide (scrambled sequence of same amino acids; CP, SEQ ID NO:5) at 1.5 mg/kg body weight or vehicle was injected IV into mice exposed to BLM 14 days earlier. One week later, mice were tested by CT scanning to evaluate lung fibrosis. Lung volume was measured in the same mice using quantitative CT renditions.

A further experiment has as its system FL(IPF)-fibroblasts. As to the kind of experiment: miR-34a (real-time PCR) and p53 (immunoblot) in FL-fibroblasts treated with CSP. The experiment is classed as cell-based, human. To be noted: controls PBS, CP. The procedure: (§1) FIGS. 6A-6D. CSP (CSP4) augments p53 expression via induction of miR-34a in FL(IPF)-fibroblasts. (FIG. 6A) NL- and FL-fibroblasts (n=3) were treated with PBS, CSP-4 (CSP) or control peptide (CP). RNA was analyzed for miR-34a by real-time PCR. (FIG. 6B) FL-fibroblasts were treated with PBS or CSP or CP with or without miR-34a antisense (miR-34a-AS) or pre-miR-34a or control miRNA (Ctr-miR). Conditioned media (CM) were immunoblotted for PAI-1 and lysates (CL) for p53 and β-actin. (FIG. 6C) FL-fibroblasts were treated with PBS or CSP or CP in the presence or absence of miR-34a-AS, pre-miR-34a or Ctr-miR. RNA was analyzed for changes in miR-34a by real-time PCR. […] Changes in p53, uPA, PAI-1 and col-I were later assessed to identify the minimum amino acids required for the CSP effects.
(§2) NL- and FL-fibroblasts were treated with PBS, CSP or CP and RNA analyzed for miR-34a by real-time PCR. Also, FL-fibroblasts were cultured in the presence of PBS or CSP or CP with or without miR-34a antisense (miR-34a-AS) or pre-miR-34a (o control miRNA. Conditioned medium (CM) from these cultures was immunoblotted for PAI-1 and cell lysates (CL) were immunoblotted for p53. In one experiment, FL-fibroblasts were treated with PBS or CSP or CP in the presence or absence of miR-34a-AS, pre-miR-34a or control miR. RNA was analyzed for changes in miR-34a by real-time PCR. Results appear in FIGS. 6A-6C.

For a further experiment, the system named is ATII cell. As to conditions: BLM- or cigarette smoke-induced; cited from earlier work.
For another experiment, the system named is NL-fibroblasts. As to the kind of experiment: miR-34a and p53 in NL-fibroblasts treated with CSP. The experiment is classed as cell-based, human. The procedure:
as §1, §2

Consider “NYHYLESSMTALYTLGH [PP 2, 17 residue peptide of the inventors' earlier application]”, for which the “BLM-induced apoptosis of LECs” value in experiment [1] was “protected”. In addition, the subsequent pulmonary fibrosis entry in experiment [2] is listed as “prevented”.
As for “DGIWKASFTTFTVTKYWFYR (Synthetic peptide - Scaffolding domain of human caveolin-1) [CSP, 20 residue peptide which is the scaffolding domain of caveolin-1]”, in the experiment with BLM-treated mice, the established lung fibrosis result is “mitigates”. Besides, in the experiment on FL(IPF)-fibroblasts, the miR-34a expression result was “significantly increased” and the p53 expression entry is “significantly increased”. Besides, in experiment [1], the “BLM-induced apoptosis of LECs” value was “protected”. Besides, in the experiment on ATII cell, the ATII cell apoptosis entry is “inhibited” and the “ATII cell p53 expression” value was “inhibited”. The p53 expression result with NL-fibroblasts was “not in NL-fibroblasts”. Further, in experiment [2], the subsequent pulmonary fibrosis entry is on record as “prevented”.
